Laboratory results: patent US8957074B2 (Novartis AG, priority 2010, dated 2015)
Read-outs that look alike come from different tables or passages of the source.

Key:
CDK1/cyclin B = CDK1/cyclin B (Homo sapiens (Human), UniProt P06493); experiment: CDK1/cyclin B enzymatic activity assay (IMAP-FP); type: biochemical
Source text: CDK1/Cyclin B Enzymatic Activity Assay
A 384-well microtiter IMAP-FP™ (Molecular Devices Trade Mark Technology) endpoint assay was used for CDK1/cyclin B kinase activity measurements. The same assay was used for IC50 determination of small molecule inhibitors.

CDK4/cyclin D1 = CDK4/cyclin D1 (Homo sapiens (Human), UniProt P11802); experiment: CDK4/cyclin D1 enzymatic activity assay (TR-FRET, phosphorylation of pRb at Ser780); type: biochemical
Summary of the method: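 Phosphorylation at pRb Ser780, detected by TR-FRET, gave IC50s and kinetics. Enzyme: baculovirus/Sf21-expressed human CDK4/cyclin D1. ATP at 3 μM initiated the reaction; EDTA (pH 8.0) stopped it after 60 min at 22° C.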

[1] = system: phosphorylation of pRb at the Ser780 site in JeKo-1 mantle cell lymphoma cells; experiment: CDK4 cellular assay: ELISA of pRb phosphorylation at Ser780 in JeKo-1 cells; type: cell-based
[2] = […] CDK1/cyclin B, 100 nM Tamra Histone-H1 peptide, 20 μM ATP, 120 min at room temperature, read-out: Biochemical CDK1 enzyme IC50
[3] = 0.3 nM CDK4/cyclin D1, 150 nM biotin-pRb (773-924), 3 μM ATP, 60 min at 22° C., read-out: Biochemical CDK4 enzyme IC50
[4] = Homo sapiens, JeKo-1, JeKo-1 cells, p-pRb % inhibition adjusted with total pRb levels, read-out: Normalized cellular ppRb inhibition IC50
[5] = Homo sapiens, JeKo-1, JeKo-1 cells, p-pRb Ser780 ELISA, non-normalized, read-out: Cellular ppRb inhibition IC50
[6] = Homo sapiens, JeKo-1 cells, p-pRb % inhibition adjusted with total pRb levels, read-out: Normalized cellular ppRb inhibition IC50
[7] = Homo sapiens, JeKo-1 cells, p-pRb Ser780 ELISA, non-normalized, read-out: Cellular ppRb inhibition IC50
[8] = 0.25 nM CDK1/cyclin B, 100 nM Tamra Histone-H1 peptide, 20 μM ATP, 120 min at room temperature, read-out: Biochemical CDK1 enzyme IC50

Sequence of CDK1/cyclin B (P06493 whole entry, species assumed): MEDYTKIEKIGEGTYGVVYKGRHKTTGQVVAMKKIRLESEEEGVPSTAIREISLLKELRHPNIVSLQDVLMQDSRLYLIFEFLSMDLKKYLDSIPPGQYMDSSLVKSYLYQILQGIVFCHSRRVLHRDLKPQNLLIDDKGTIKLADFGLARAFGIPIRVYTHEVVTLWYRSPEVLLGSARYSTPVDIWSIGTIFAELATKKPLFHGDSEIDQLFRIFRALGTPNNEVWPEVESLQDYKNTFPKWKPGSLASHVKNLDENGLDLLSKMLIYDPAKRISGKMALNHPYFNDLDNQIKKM
Sequence of CDK1/cyclin B (P14635 whole entry partner, species assumed): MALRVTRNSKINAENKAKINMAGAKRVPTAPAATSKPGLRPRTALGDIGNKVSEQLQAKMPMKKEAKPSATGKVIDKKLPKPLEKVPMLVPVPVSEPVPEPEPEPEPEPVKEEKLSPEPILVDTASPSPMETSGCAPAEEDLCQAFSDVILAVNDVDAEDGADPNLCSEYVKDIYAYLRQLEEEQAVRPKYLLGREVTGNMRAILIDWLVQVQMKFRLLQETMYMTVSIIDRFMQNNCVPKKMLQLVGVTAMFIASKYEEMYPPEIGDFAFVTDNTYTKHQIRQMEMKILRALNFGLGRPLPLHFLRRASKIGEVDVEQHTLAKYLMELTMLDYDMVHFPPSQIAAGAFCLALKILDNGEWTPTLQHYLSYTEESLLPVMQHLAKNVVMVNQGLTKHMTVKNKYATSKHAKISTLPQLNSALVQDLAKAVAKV
Sequence of CDK4/cyclin D1 (P11802 whole entry): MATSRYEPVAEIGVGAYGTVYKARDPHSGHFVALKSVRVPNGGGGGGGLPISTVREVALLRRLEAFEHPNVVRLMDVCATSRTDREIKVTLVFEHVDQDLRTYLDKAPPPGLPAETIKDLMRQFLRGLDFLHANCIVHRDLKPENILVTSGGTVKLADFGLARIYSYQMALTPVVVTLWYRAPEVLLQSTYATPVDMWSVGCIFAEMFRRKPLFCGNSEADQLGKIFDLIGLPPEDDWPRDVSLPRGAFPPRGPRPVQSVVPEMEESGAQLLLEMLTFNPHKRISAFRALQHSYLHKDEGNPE
Sequence of CDK4/cyclin D1 (P24385 whole entry partner): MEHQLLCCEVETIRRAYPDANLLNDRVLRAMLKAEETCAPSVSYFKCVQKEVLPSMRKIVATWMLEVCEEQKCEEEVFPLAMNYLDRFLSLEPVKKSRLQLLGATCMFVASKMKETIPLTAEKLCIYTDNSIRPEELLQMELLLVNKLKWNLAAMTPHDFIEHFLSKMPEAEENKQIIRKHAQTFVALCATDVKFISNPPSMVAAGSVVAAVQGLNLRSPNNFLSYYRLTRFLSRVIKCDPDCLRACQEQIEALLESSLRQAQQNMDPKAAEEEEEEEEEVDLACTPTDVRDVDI

Structure (SMILES) | IC50 (CDK1/cyclin B; [2]) | IC50 (CDK4/cyclin D1; [3]) | IC50 [1, 4] | IC50 [1, 5] | IC50 [1, 6] | IC50 [1, 7] | IC50 ([1]; JeKo-1 cells, p-pRb % inhibition adjusted with total pRb levels, read-out: Normalized cellular ppRb inhibition IC50) | IC50 ([1]; JeKo-1 cells, p-pRb Ser780 ELISA, non-normalized, read-out: Cellular ppRb inhibition IC50) | IC50 (CDK1/cyclin B; [8]) | IC50 (CDK4/cyclin D1) | IC50 (CDK1/cyclin B)
CN(C)C(=O)c1cc2cnc(Nc3ccc(N4C[C@H]5CC[C@@H](CC4=O)N5)cn3)nc2n1C1CCCC1 [Example 123, 7-Cyclopentyl-2-[5-((1R,6S)-4-oxo-3,9-diaza-bicyclo[4.2.1]non-3-yl)-pyridin-2-ylamino]-7H-pyrrolo[2,3-d]pyrimidine-6-carboxylic acid dimethylamide] | 29300 nM | 3 nM | 8 to 99 nM | 5 to 16 nM |  |  |  |  |  |  | 
CCOC(=O)N1C2CCC1CN(C(=O)c1ccc(Nc3ncc4cc(C(=O)N(C)C)n(C5CCCC5)c4n3)nc1)C2 [Example 64, 3-[6-(7-Cyclopentyl-6-dimethylcarbamoyl-7H-pyrrolo[2,3-d]pyrimidin-2-ylamino)-pyridine-3-carbonyl]-3,8-diaza-bicyclo[3.2.1]octane-8-carboxylic acid ethyl ester] | > 15000 nM | 72 to 179 nM |  |  | 771 to 2200 nM | 323 to 466 nM |  |  |  |  | 
CN(C)C(=O)c1cc2cnc(Nc3ccc(N4CC5CCC(CC4=O)N5)cn3)nc2n1C1CCC1 (stereo not shown) [Example 134, 7-Cyclobutyl-2-[5-(4-oxo-3,9-diaza-bicyclo[4.2.1]non-3-yl)-pyridin-2-ylamino]-7H-pyrrolo[2,3-d]pyrimidine-6-carboxylic acid dimethylamide] | > 15000 nM | 8 nM | 123 nM | 66 nM |  |  |  |  |  |  | 
CNC(=O)c1cc2cnc(Nc3ccc(C(=O)N4C[C@@H]5C[C@H]4CN5)cn3)nc2n1C1CCCC1 [Example 24, 7-Cyclopentyl-2-[5-((S,S)-2,5-diaza-bicyclo[2.2.1]heptane-2-carbonyl)-pyridin-2-ylamino]-7H-pyrrolo[2,3-d]pyrimidine-6-carboxylic acid methylamide] | > 15000 nM | 49 nM |  |  |  |  | 272 nM | 266 nM |  |  | 
CNC(=O)c1cc2cnc(Nc3ccc(C(=O)N4CC5CCC(C4)N5)cn3)nc2n1C1CCCC1 [Example 23, 7-Cyclopentyl-2-[5-(3,8-diaza-bicyclo[3.2.1]octane-3-carbonyl)-pyridin-2-ylamino]-7H-pyrrolo[2,3-d]pyrimidine-6-carboxylic acid methylamide] | > 15000 nM | 1630 nM | 6770 nM | 6770 nM |  |  |  |  |  |  | 
CN(C)C(=O)c1cc2cnc(Nc3ccc(N4CCN5CCCCC5C4=O)cn3)nc2n1C1CCCC1 (stereo not shown) [Example 99, 7-Cyclopentyl-2-[5-(1-oxo-octahydro-pyrido[1,2-a]pyrazin-2-yl)-pyridin-2-ylamino]-7H-pyrrolo[2,3-d]pyrimidine-6-carboxylic acid dimethylamide] | > 15000 nM | 71 nM | 618 nM | 463 nM |  |  |  |  |  |  | 
CN(C)C(=O)c1cc2cnc(Nc3ccc(C(=O)N4CC5CCC(C4)N5)cn3)nc2n1C1CCCOC1 (stereo not shown) [Example 65, 2-(5-(3,8-diazabicyclo[3.2.1]octane-3-carbonyl)pyridin-2-ylamino)-N,N-dimethyl-7-(tetrahydro-2H-pyran-3-yl)-7H-pyrrolo[2,3-d]pyrimidine-6-carboxamide] | > 15000 nM | 76 nM |  |  | 132 to 458 nM | 126 to 211 nM |  |  |  |  | 
CN(C)C(=O)c1cc2cnc(Nc3ccc(N4C[C@@H]5CC[C@H](CC4=O)N5S(C)(=O)=O)cn3)nc2n1C1CCCC1 [Example 137, 7-cyclopentyl-N,N-dimethyl-2-(5-((1S,6R)-9-(methylsulfonyl)-4-oxo-3,9-diazabicyclo[4.2.1]nonan-3-yl)pyridin-2-ylamino)-7H-pyrrolo[2,3-d]pyrimidine-6-carboxamide] | > 15000 nM | 62 nM |  |  | 150 nM | 155 nM |  |  |  |  | 
CN(C)C(=O)c1cc2cnc(Nc3ccc(N4CC5CCC(CC4=O)N5)nn3)nc2n1C1CCCC1 (stereo not shown) [Example 79, 7-Cyclopentyl-2-[6-(4-oxo-3,9-diaza-bicyclo[4.2.1]non-3-yl)pyridazin-3-ylamino]-7H-pyrrolo[2,3-d]pyrimidine-6-carboxylic acid dimethylamide] |  |  | 117 nM | 30 nM |  |  |  |  | > 15000 nM | 42 nM | 
CN(C)C(=O)c1cc2cnc(Nc3ccc(N4C[C@@]5(CCCNC5)OC4=O)cn3)nc2n1C1CCCC1 [Example 109, 7-Cyclopentyl-2-[5-((S)-2-oxo-1-oxa-3,7-diaza-spiro[4.5]dec-3-yl)-pyridin-2-ylamino]-7H-pyrrolo[2,3-d]pyrimidine-6-carboxylic acid dimethylamide] | > 15000 nM | 12 nM |  |  | 75 nM | 48 nM |  |  |  |  | 
CC(=O)N1[C@@H]2CC[C@H]1CN(c1ccc(Nc3ncc4cc(C(=O)N(C)C)n(C5CCCC5)c4n3)nc1)C(=O)C2 [Example 139, 2-(5-((1S,6R)-9-acetyl-4-oxo-3,9-diazabicyclo[4.2.1]nonan-3-yl)pyridin-2-ylamino)-7-cyclopentyl-N,N-dimethyl-7H-pyrrolo[2,3-d]pyrimidine-6-carboxamide] | > 15000 nM | 114 nM | 638 nM | 605 nM |  |  |  |  |  |  | 
CN(C)C(=O)c1cc2cnc(Nc3ccc(C(=O)N4CCC5COCC(C4)N5)cn3)nc2n1C1CCCC1 (stereo not shown) [Example 75, 7-Cyclopentyl-2-[5-(8-oxa-3,10-diaza-bicyclo[4.3.1]decane-3-carbonyl)-pyridin-2-ylamino]-7H-pyrrolo[2,3-d]pyrimidine-6-carboxylic acid dimethylamide] |  |  | 525 nM | 81 nM |  |  |  |  |  | 47 nM | > 15000 nM
CN1C[C@@H]2CN(c3ccc(Nc4ncc5cc(C(=O)N(C)C)n(C6CCCC6)c5n4)nc3)C(=O)[C@@H]2C1 (stereo in doubt) [Example 95, 7-cyclopentyl-N,N-dimethyl-2-(5-((3aR,6aS)-5-methyl-1-oxohexahydropyrrolo[3,4-c]pyrrol-2(1H)-yl)pyridin-2-ylamino)-7H-pyrrolo[2,3-d]pyrimidine-6-carboxamide] |  | 7 nM | 21 to 65 nM | 4 to 20 nM |  |  |  |  | 14000 to 14300 nM |  | 
CN(C)C(=O)c1cc2cnc(Nc3ccc(N4C[C@H]5CNC[C@H]5C4=O)cn3)nc2n1C1CCCCCC1 [Example 83, 7-cycloheptyl-N,N-dimethyl-2-(5-((3aR,6aS)-1-oxohexahydropyrrolo[3,4-c]pyrrol-2(1H)-yl)pyridin-2-ylamino)-7H-pyrrolo[2,3-d]pyrimidine-6-carboxamide] | 5320 nM | 3 nM |  |  | 9 nM | 5 nM |  |  |  |  | 
CN(C)C(=O)c1cc2cnc(Nc3ccc(N4C[C@@H]5CC[C@H](CC4=O)N5)cn3)nc2n1-c1ccccc1 [Example 129, 2-[5-((1S,6R)-4-Oxo-3,9-diaza-bicyclo[4.2.1]non-3-yl)-pyridin-2-ylamino]-7-phenyl-7H-pyrrolo[2,3-d]pyrimidine-6-carboxylic acid dimethylamide] | > 15000 nM | 48 nM | 221 nM | 194 nM |  |  |  |  |  |  | 
CN(C)C(=O)c1cc2cnc(Nc3ccc(C(=O)N4C[C@@H]5C[C@H]4CN5)cn3)nc2n1C1CCCC1 [Example 19, 7-Cyclopentyl-2-[5-((S,S)-2,5-diaza-bicyclo[2.2.1]heptane-2-carbonyl)-pyridin-2-ylamino]-7H-pyrrolo[2,3-d]pyrimidine-6-carboxylic acid dimethylamide] | > 15000 nM | 5 to 8 nM | 64 to 116 nM | 54 to 55 nM |  |  |  |  |  |  | 
CN(C)C(=O)c1cc2cnc(Nc3ccc(C(=O)N4C[C@H]5CN[C@H](C5)C4)cn3)nc2n1C1CCCC1 [Example 11, 7-Cyclopentyl-2-[5-((1R,5R)-3,6-diaza-bicyclo[3.2.1]octane-3-carbonyl)-pyridin-2-ylamino]-7H-pyrrolo[2,3-d]pyrimidine-6-carboxylic acid dimethylamide] | > 15000 nM | 9 nM | 68 nM | 39 nM |  |  |  |  |  |  | 
CN(C)C(=O)c1cc2cnc(Nc3ccc(C(=O)N4CC5CNC(C5)C4)cn3)nc2n1C1CCCC1 (racemic) [Example 9, 7-Cyclopentyl-2-[5-(3,6-diaza-bicyclo[3.2.1]octane-3-carbonyl)-pyridin-2-ylamino]-7H-pyrrolo[2,3-d]pyrimidine-6-carboxylic acid dimethylamide] | 7100 nM | < 4 nM | 120 nM | 55 nM |  |  |  |  |  |  | 
CN(C)C(=O)c1cc2cnc(Nc3ccc(C(=O)N4CC5CN(Cc6ccccc6)CC(C4)O5)cn3)nc2n1C1CCCC1 [Example 46, 2-[5-(7-Benzyl-9-oxa-3,7-diaza-bicyclo[3.3.1]nonane-3-carbonyl)-pyridin-2-ylamino]-7-cyclopentyl-7H-pyrrolo[2,3-d]pyrimidine-6-carboxylic acid dimethylamide] | > 15000 nM | 100 nM | 730 nM | 724 nM |  |  |  |  |  |  | 
